Data from US20240270810A1, “PREPARATION AND APPLICATION OF POLYPEPTIDE” (GUANGDONG RAYNOVENT BIOTECH CO., LTD., priority 2021, published 2024).

Columns and labels:
GLP-1R = molecular target: T1, GLP-1R (Homo sapiens, UniProt P43220); assay: In vitro GLP-1R agonistic activity test (cAMP kit); type: cell-based; details: HEK293 host cells
T1 construct: host or cells: HEK293
Experimental: The cell lines were constructed by Wuxi […] (Shanghai) Co., Ltd. See details in Table 1 below. [table] [table] The test compounds were diluted at a 4-fold dilution factor in 10 points, starting from an initial concentration of 30 μM. The dilution was carried out by Bravo. • 1) 100 nL of compounds were transferred to an OptiPlate-384 plate by Echo. • 2) The OptiPlate-384 plate was centrifuged at 1000 rpm for 5 s. • 1) A GLP-1R/GIPR cell cryovial was placed in warm water at 37° C. for rapid thawing. • 2) The cell suspension was transferred into a 15 mL Transfer centrifugal tube and rinsed with 10 mL of HBSS gently. • 3) The centrifugal tube was centrifuged at 1000 rpm at room temperature for 1 min. • 4) The supernatant was discarded. • 5) The bottom cells were gently dispersed, then gently rinsed with 10 mL of HBSS, the centrifugal tube was centrifuged to settle the cells, and finally the cells were resuspended in an experimental buffer. • 6) Cell density and viability were measured by Vi-cell. • 7) The GLP-1R/GIPR cells were diluted with the experimental buffer to a concentration of 2.0*10^5/mL. • 8) […] of the diluted cell suspension was transferred into the OptiPlate-384 plate. • 9) Incubation was performed at room temperature for 30 min. • 1) 10 μL of 800 nM gradient diluted cAMP standard was added into the empty wells of the OptiPlate-384 plate. • 2) 10 μL of cAMP assay reagent was added. • 3) The OptiPlate-384 plate was covered with TopSeal-A film and incubated at room temperature for 60 min. The TopSeal-A film was removed, and readout was performed on En Vision.

in vivo [1] = assay: in vivo; parameters: species or system SD rats; details: rat, sc, 0.048 mg/kg; for Cmax: Sprague-Dawley
Experimental: The pharmacokinetic characteristics in rodent animals following subcutaneous injection of the compounds were tested using standard protocols. In the experiment, the candidate compounds were formulated into clear solution, which was administered to rats by single subcutaneous injection (SC, 0.048 mpk). The vehicle for injection was citrate buffer solution (20 mM, pH=7). The whole blood was collected and processed to get the plasma. The drug concentration was analyzed by LC-MS/MS, and the pharmacokinetic parameters were calculated using Phoenix WinNonlin software.

in vivo [2] = assay: in vivo; parameters: species or system C57BL/6 mice; details: sc, 0.048 mg/kg
Experimental: The pharmacokinetic characteristics in rodent animals following subcutaneous injection of the compounds were tested using standard protocols. In the experiment, the candidate compounds were formulated into clear solution, which was administered by subcutaneous injection (SC, 0.048 mpk). The vehicle for subcutaneous injection was citrate buffer solution (20 mM, pH=7). The whole blood was collected and processed to get the plasma. The drug concentration was analyzed by LC-MS/MS, and the pharmacokinetic parameters were calculated using Phoenix WinNonlin software.

in vivo [3] = assay: in vivo; parameters: species or system Cynomolgus macaques; details: cynomolgus monkey, sc, 0.02 mg/kg
Experimental: The pharmacokinetic characteristics in mammals following intravenous injection and subcutaneous injection of the compounds were tested using standard protocols. In the experiment, the candidate compounds were formulated into clear solution, which was administered to Cynomolgus macaques by single subcutaneous injection (SC, 0.02 mpk). The vehicle for subcutaneous injection was citrate buffer solution (20 mM, pH=7). The whole blood was collected and processed to get the plasma. The drug concentration was analyzed by LC-MS/MS, and the pharmacokinetic parameters were calculated using Phoenix WinNonlin software.

in vitro = in vitro ADME; details: mouse, plasma
Experimental: To study the stability of the test compounds in the plasma of normal mice. • 1. Before the experiment, the clotted frozen plasma was thawed in a water bath at 37° C. The resulting plasma was centrifuged at 4000 rpm for 5 min. If there is blood clot, remove the clot and adjust the pH to 7.4±0.1. • 2. The test compound solution was prepared by diluting the compounds with DMSO to prepare a solution of 100 μM. • 3. 98 μL of plasma, as a blank control, was added with 2 μL of the test compound solution (100 μM) to get a mixed solution with a final concentration of 2 μM, which was incubated in a water bath at 37° C. • 4. 100 μL of H3PO4 solution and 800 μL of stop solution (a 100% solution of 200 ng/mL tolbutamide and 200 ng/ml labetalol in methanol) were respectively added at each time point (0, 10, 30, 60, and 120 min) to precipitate protein, which was then mixed thoroughly. • 5. The samples were centrifuged at 4000 rpm for 20 min, and 100 μL of supernatant was taken from each well for LC-MS/MS analysis.

T1 sequence (P43220 24-463, species assumed): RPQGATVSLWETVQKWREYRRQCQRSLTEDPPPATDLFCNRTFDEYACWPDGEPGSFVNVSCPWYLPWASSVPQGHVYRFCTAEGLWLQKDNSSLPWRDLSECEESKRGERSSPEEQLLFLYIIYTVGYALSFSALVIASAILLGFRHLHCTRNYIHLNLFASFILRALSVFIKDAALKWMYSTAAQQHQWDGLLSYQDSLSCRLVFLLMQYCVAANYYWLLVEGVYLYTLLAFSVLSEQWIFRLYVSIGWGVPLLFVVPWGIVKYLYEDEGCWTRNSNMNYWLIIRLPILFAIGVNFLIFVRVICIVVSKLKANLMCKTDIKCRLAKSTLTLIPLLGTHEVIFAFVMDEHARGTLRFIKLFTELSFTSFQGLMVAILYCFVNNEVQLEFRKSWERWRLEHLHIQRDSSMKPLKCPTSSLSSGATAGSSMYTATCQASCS

EC50 (GLP-1R; with 1% HSA)	EC50 (GLP-1R; without 1% HSA)	Cmax (in vivo [1])	AUC(0-t) (in vivo [1])	Tmax (in vivo [1])	half-life (in vivo [1])	Cmax (in vivo [2]; C57BL/6, mouse)	AUC(0-t) (in vivo [2]; mouse)	Tmax (in vivo [2]; mouse)	half-life (in vivo [2]; mouse)	AUC(0-t) (in vivo [3])	Cmax (in vivo [3])	Tmax (in vivo [3])	half-life (in vivo [3])	half-life (in vitro)	Tmax (in vivo [1]; SD)	Tmax (in vivo [2]; C57BL/6, mouse)	half-life at 2 μM (in vitro; pH 7.4)	SMILES
7.63 nM	0.036 nM	28 nM	1.15 µM·h	16 h	21 h	79 nM	2.24 µM·h	12 h	16 h	4.47 µM·h	36 nM	24 h	100 h	> 4.82 h				CC[C@H](C)[C@H](NC(=O)[C@H](CC(C)C)NC(=O)[C@H](Cc1c[nH]c2ccccc12)NC(=O)[C@H](CCC(=O)O)NC(=O)[C@@H](NC(=O)[C@H](Cc1ccccc1)NC(=O)[C@H](C)NC(=O)[C@@H]1CCCCNC(=O)CN(C(=O)COCCOCCNC(=O)COCCOCCNC(=O)CC[C@H](NC(=O)CCCCCCCCCCCCCCCCCCC(=O)O)C(=O)O)CC(=O)NCCCC[C@H](NC(=O)[C@H](CCCCN)NC(=O)[C@H](CC(=O)O)NC(=O)[C@H](CC(C)C)NC(=O)C(C)(C)NC(=O)[C@@H](NC(=O)[C@H](CO)NC(=O)[C@H](Cc2ccc(O)cc2)NC(=O)[C@H](CC(=O)O)NC(=O)[C@H](CO)NC(=O)[C@@H](NC(=O)[C@H](Cc2ccccc2)NC(=O)[C@@H](NC(=O)CNC(=O)[C@H](CCC(=O)O)NC(=O)C(C)(C)NC(=O)[C@@H](N)Cc2ccc(O)cc2)[C@@H](C)O)[C@@H](C)O)[C@@H](C)CC)C(=O)N[C@@H](C)C(=O)N[C@@H](CCC(N)=O)C(=O)N1)C(C)C)C(=O)N[C@@H](C)C(=O)NCC(=O)NCC(=O)N1CCC[C@H]1C(=O)N[C@@H](CO)C(=O)N[C@@H](CO)C(=O)NCC(=O)N[C@@H](C)C(=O)N1CCC[C@H]1C(=O)N1CCC[C@H]1C(=O)N1CCC[C@H]1C(=O)N[C@@H](CO)C(N)=O [WX-005]
	0.014 nM	24 nM				59 nM					37 nM	24 h			20 h	12 h	> 3.98 h	CC[C@H](C)[C@H](NC(=O)[C@H](CC(C)C)NC(=O)[C@H](Cc1c[nH]c2ccccc12)NC(=O)[C@H](CCC(=O)O)NC(=O)[C@@H](NC(=O)[C@H](Cc1ccccc1)NC(=O)[C@H](CCC(=O)O)NC(=O)[C@@H]1CCCCNC(=O)CN(C(=O)COCCOCCNC(=O)COCCOCCNC(=O)CC[C@H](NC(=O)CCCCCCCCCCCCCCCCCCC(=O)O)C(=O)O)CC(=O)NCCCC[C@H](NC(=O)[C@H](CCCCN)NC(=O)[C@H](CC(=O)O)NC(=O)[C@H](CC(C)C)NC(=O)C(C)(C)NC(=O)[C@@H](NC(=O)[C@H](CO)NC(=O)[C@H](Cc2ccc(O)cc2)NC(=O)[C@H](CC(=O)O)NC(=O)[C@H](CO)NC(=O)[C@@H](NC(=O)[C@H](Cc2ccccc2)NC(=O)[C@@H](NC(=O)CNC(=O)[C@H](CCC(=O)O)NC(=O)C(C)(C)NC(=O)[C@@H](N)Cc2ccc(O)cc2)[C@@H](C)O)[C@@H](C)O)[C@@H](C)CC)C(=O)N[C@@H](C)C(=O)N[C@@H](CCC(N)=O)C(=O)N1)C(C)C)C(=O)N[C@@H](C)C(=O)NCC(=O)NCC(=O)N1CCC[C@H]1C(=O)N[C@@H](CO)C(=O)N[C@@H](CO)C(=O)NCC(=O)N[C@@H](C)C(=O)N1CCC[C@H]1C(=O)N1CCC[C@H]1C(=O)N1CCC[C@H]1C(=O)N[C@@H](CO)C(N)=O [WX-009]
